Results published in patent US20110070186A1 (priority 2009, published 2011).

Tested on: DU-145 cells
Assay type: cell-based, human

With `C=C1[C@@H](C)[C@H]2[C@H](Cc3ccccc3)NC(=O)[C@]23[C@H](OC(C)=O)/C=C/[C@@](C)(O)C(=O)[C@@H](C)C/C=C/[C@H]3[C@@H]1O` [Cytochalasin-D] the “Effect on cell migration (in words)” value was “did not migrate”, the “Relative Wound Density at 24 Hours, Mean” value was 3.3 ± 0.2 and the “Relative Wound Density at 24 Hours, Percent Relative to Media” value was 4%.
